Calls of active or inactive are those of the source.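 The calls were made as follows: active = less than 90% of the starting compound still present after 180 minutes in mouse plasma; inactive = 90% or more still present.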
System: mouse plasma stability, LC/MS/MS, 180 min
Assay: mouse plasma degradation, percent remaining – biochemical, LC/MS/MS, 180 min, dry powder, ADME assay, late-stage follow-up (AID 1592)
Settings: at 1 µM; stronger effect = lower value

percent remaining: 93.2% (inactive)
SMILES: C=CCn1c(SCC(=O)c2ccc(O)c(O)c2)nnc1-c1ccccc1OC

— PubChem BioAssay AID1592 (Sanford-Burnham Center for Chemical Genomics, 2009)
